Data set [1] deals with T1, HER2 (Homo sapiens, UniProt P04626).
T1 construct: purchased Reaction Biology Corp
In words: HotSpot in vitro kinase assay, HER2. In kind it is biochemical. The note with it: single dose 10 µM compound, 10 µM ATP.

For data set [2], the target named is T2, EGFR (Homo sapiens, UniProt P00533).
T2 construct: purchased Reaction Biology Corp
In words: HotSpot in vitro kinase assay, EGFR. Type of data set: biochemical. As to conditions: for inhibition at 10 µM: single dose 10 µM compound, 10 µM ATP.

For data set [3], the target named is T3, P38a/MAPK14 (Homo sapiens, UniProt Q16539).
T3 construct: purchased Reaction Biology Corp
T3 sequence (Q16539 whole entry): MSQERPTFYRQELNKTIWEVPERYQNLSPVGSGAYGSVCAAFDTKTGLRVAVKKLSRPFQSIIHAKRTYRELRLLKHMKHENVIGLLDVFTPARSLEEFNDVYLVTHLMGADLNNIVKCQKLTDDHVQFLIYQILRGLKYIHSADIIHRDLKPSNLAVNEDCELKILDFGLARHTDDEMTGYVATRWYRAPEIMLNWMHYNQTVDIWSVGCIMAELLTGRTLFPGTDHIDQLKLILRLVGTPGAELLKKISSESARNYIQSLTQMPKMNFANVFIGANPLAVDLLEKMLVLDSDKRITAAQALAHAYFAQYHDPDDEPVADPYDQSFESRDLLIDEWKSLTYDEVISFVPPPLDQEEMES
In words: Kinase selectivity panel, P38a/MAPK14. Type of data set: biochemical. As to conditions: single dose 10 µM.

Data set [4] deals with T4, KDR/VEGFR2 (Homo sapiens, UniProt P35968).
T4 construct: purchased Reaction Biology Corp
T4 sequence (P35968 20-1356): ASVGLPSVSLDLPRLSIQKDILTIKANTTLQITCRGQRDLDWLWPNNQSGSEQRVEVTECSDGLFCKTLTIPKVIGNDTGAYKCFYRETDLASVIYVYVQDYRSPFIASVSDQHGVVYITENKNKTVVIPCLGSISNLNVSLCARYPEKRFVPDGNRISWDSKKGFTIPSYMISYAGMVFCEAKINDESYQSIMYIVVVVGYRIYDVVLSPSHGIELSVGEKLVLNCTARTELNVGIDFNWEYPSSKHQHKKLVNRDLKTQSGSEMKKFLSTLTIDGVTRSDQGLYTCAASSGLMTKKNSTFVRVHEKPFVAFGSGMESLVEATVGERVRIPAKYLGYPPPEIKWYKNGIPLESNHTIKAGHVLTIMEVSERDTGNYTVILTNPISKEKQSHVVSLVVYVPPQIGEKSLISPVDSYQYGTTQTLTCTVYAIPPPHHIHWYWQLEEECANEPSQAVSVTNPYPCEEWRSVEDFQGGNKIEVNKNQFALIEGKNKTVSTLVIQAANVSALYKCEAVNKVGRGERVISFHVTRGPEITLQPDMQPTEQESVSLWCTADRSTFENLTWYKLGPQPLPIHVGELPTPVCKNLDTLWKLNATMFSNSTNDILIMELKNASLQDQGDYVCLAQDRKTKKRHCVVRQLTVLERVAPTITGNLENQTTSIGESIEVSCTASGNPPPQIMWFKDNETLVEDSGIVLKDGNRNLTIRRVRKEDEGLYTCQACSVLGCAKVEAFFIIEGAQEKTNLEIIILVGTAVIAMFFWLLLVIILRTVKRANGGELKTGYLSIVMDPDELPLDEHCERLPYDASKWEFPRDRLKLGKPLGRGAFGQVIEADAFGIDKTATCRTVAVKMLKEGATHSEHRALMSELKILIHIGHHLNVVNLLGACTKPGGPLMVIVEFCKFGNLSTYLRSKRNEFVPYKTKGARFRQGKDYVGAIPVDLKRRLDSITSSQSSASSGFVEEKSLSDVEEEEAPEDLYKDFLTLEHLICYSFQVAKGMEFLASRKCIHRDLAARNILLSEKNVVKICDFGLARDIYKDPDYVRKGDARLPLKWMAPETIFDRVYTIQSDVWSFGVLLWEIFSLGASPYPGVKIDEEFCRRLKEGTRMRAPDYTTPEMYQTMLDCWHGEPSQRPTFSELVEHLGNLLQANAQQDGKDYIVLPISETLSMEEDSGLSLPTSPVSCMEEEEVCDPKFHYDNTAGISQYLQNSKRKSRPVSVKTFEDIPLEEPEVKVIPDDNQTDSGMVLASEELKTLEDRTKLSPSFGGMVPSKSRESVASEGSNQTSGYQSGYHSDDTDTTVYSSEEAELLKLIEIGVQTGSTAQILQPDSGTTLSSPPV
Kind of data set: Kinase selectivity panel, KDR/VEGFR2. Type of data set: biochemical. The note with it: single dose 10 µM.

Data set [5] has as its target T5, c-MET (Homo sapiens, UniProt P08581).
T5 construct: purchased Reaction Biology Corp
Kind of data set: Kinase selectivity panel, c-MET. In kind it is biochemical. As to conditions: single dose 10 µM.

The target in data set [6] is T6, CDK2/cyclin A (Homo sapiens, UniProt P24941).
T6 construct: purchased Reaction Biology Corp
In words: Kinase selectivity panel, CDK2/cyclin A. In kind it is biochemical. As to conditions: single dose 10 µM.

For data set [7], the target named is T7, FGFR1 (Homo sapiens, UniProt P11362).
T7 construct: purchased Reaction Biology Corp
T7 sequence (P11362 22-822): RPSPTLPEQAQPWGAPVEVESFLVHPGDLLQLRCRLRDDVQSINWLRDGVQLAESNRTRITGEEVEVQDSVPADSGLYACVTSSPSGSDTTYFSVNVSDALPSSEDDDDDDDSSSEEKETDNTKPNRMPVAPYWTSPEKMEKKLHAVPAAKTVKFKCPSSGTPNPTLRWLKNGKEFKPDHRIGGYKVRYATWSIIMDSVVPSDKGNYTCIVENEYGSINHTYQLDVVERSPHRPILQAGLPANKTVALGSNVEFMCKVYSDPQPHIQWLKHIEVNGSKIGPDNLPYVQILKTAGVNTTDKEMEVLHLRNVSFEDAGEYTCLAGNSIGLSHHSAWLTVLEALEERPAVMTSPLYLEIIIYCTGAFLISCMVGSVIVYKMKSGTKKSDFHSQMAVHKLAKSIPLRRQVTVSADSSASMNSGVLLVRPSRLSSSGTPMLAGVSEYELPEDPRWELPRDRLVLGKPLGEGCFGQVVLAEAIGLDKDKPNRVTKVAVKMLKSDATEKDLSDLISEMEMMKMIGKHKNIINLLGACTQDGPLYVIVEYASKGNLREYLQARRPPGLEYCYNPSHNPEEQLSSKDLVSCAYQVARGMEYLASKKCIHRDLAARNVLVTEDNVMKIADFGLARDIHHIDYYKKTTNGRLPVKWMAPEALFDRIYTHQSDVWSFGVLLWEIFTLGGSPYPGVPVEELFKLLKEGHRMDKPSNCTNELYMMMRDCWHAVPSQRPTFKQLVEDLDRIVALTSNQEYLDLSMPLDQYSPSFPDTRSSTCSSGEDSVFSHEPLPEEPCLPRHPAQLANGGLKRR
Kind of data set: Kinase selectivity panel, FGFR1. Type of data set: biochemical. The note with it: single dose 10 µM.

Entries after “also recorded” stand apart in the source; their conditions may differ.

The record followed here is paper PMC9862743 (Pharmaceuticals, 2022).

T2 sequence (P00533 25-1210): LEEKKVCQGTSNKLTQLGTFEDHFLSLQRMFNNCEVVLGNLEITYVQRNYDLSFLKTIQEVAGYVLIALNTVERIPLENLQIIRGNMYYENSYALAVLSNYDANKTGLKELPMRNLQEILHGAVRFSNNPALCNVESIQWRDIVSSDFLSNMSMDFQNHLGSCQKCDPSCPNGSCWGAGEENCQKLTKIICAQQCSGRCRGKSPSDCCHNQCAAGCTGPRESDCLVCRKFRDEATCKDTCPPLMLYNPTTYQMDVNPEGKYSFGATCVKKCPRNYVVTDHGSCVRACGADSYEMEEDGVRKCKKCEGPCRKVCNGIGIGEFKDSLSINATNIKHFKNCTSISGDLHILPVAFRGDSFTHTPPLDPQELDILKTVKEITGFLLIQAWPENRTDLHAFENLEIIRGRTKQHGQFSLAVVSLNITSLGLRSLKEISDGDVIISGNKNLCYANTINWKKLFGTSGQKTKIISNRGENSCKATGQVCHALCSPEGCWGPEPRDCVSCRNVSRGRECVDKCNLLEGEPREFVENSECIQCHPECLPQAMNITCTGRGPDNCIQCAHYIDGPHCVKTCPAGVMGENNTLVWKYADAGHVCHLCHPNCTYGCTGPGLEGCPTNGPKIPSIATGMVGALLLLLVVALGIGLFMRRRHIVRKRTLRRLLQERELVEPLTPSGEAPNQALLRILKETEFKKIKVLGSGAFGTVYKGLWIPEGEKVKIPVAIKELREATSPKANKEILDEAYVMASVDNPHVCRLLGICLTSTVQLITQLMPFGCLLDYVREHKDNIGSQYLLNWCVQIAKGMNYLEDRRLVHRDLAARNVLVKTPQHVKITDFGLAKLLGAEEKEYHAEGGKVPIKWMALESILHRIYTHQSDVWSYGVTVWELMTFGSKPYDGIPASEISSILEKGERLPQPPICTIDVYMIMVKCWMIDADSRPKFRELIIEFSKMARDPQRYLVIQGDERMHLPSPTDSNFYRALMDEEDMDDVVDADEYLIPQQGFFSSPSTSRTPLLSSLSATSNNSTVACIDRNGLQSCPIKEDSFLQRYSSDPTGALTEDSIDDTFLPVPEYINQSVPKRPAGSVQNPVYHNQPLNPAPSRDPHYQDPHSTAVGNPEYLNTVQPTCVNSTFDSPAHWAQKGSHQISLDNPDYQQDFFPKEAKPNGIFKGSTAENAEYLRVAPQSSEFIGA
T5 sequence (P08581 25-1390): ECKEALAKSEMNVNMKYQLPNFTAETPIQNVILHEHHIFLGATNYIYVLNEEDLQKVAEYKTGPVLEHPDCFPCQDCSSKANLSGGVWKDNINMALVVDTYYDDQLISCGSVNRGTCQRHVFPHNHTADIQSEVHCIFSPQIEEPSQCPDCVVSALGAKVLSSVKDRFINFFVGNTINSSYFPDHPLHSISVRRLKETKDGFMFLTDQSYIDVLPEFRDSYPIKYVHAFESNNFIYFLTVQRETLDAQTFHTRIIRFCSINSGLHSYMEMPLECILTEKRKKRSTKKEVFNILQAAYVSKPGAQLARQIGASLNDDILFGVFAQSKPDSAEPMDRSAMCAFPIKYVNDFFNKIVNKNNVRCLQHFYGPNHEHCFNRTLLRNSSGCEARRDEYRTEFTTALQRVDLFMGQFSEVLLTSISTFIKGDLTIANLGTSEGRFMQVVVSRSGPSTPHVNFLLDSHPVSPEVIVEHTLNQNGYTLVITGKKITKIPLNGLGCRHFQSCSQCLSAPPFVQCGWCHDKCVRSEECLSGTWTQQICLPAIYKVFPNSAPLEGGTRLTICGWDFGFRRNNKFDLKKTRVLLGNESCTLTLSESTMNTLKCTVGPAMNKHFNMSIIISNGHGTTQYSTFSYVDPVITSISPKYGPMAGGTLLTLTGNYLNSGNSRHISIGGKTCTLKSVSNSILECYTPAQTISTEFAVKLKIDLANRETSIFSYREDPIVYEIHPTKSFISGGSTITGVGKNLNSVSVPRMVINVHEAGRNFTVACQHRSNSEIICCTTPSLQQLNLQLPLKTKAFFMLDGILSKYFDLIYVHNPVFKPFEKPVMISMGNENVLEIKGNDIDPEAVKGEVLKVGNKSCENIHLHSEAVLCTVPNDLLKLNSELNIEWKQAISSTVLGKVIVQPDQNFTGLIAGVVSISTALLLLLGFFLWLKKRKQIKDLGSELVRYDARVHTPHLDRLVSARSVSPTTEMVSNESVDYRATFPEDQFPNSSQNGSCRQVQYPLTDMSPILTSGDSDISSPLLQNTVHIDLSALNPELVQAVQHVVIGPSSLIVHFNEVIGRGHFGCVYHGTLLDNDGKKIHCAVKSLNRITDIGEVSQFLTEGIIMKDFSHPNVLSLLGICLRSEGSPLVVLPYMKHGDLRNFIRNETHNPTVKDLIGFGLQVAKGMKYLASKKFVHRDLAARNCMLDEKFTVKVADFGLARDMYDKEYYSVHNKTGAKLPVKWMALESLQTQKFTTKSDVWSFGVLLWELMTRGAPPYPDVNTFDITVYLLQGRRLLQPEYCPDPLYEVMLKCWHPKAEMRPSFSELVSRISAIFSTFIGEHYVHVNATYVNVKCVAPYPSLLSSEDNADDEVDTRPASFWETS

Broadly, the inhibition is the change of the read-out against control, counted positive when it falls. In general, melting point refers to the temperature, or range, at which the solid turns liquid. The molecule `COc1cc2ncnc(Nc3ccc4ncccc4c3)c2cc1OCCCn1ccnc1[N+](=O)[O-]` [Compound 6a, 7-Methoxy-6-(3-(2-nitro-1H-imidazol-1-yl)propoxy)-N-(quinolin-6-yl)quinazolin-4-amine] returned a melting point of 249 to 250 °C. Besides, the inhibition at 10 µM in data set [1] was determined as 74.7%. Moreover, the inhibition at 10 µM in data set [2] was 98.8%.
The matching figures for `COc1cc2ncnc(Nc3ccc4ncccc4c3)c2cc1OCCCCn1ccnc1[N+](=O)[O-]` [Compound 6b, 7-Methoxy-6-(4-(2-nitro-1H-imidazol-1-yl)butoxy)-N-(quinolin-6-yl)quinazolin-4-amine]: 201 to 202 °C, 78% and 99.3%.
The matching figures for `COc1cc2ncnc(Nc3ccc4ncccc4c3)c2cc1OCCCCCn1ccnc1[N+](=O)[O-]` [Compound 6c, 7-Methoxy-6-((5-(2-nitro-1H-imidazol-1-yl)pentyl)oxy)-N-(quinolin-6-yl)quinazolin-4-amine]: 194 to 195 °C, 90% and 99.3%.
The matching figures for `COc1cc2ncnc(Nc3ccc4ncccc4c3)c2cc1OCCCCCCn1ccnc1[N+](=O)[O-]` [Compound 6d, 7-Methoxy-6-((6-(2-nitro-1H-imidazol-1-yl)hexyl)oxy)-N-(quinolin-6-yl)quinazolin-4-amine]: 176 to 177 °C, 79.7% and 99.1%.
The molecule `COc1cc2ncnc(Nc3ccc(C#N)cc3)c2cc1OCCCn1ccnc1[N+](=O)[O-]` [Compound 6e, 4-((7-Methoxy-6-(3-(2-nitro-1H-imidazol-1-yl)propoxy)quinazolin-4-yl)amino)benzonitrile] had a melting point of 245 to 246 °C. Also, the inhibition at 10 µM in data set [1] amounted to 8.78%. Also, the inhibition at 10 µM in data set [2] was 67.3%.
On the same counts, the results for `COc1cc2ncnc(Nc3ccc(C#N)cc3)c2cc1OCCCCn1ccnc1[N+](=O)[O-]` [Compound 6f, 4-((7-Methoxy-6-(4-(2-nitro-1H-imidazol-1-yl)butoxy)quinazolin-4-yl)amino)benzonitrile] are 200 to 201 °C, 11.7% and 76.5%.
The matching figures for `COc1cc2ncnc(Nc3ccc(C#N)cc3)c2cc1OCCCCCn1ccnc1[N+](=O)[O-]` [Compound 6g, 4-((7-Methoxy-6-((5-(2-nitro-1H-imidazol-1-yl)pentyl)oxy)quinazolin-4-yl)amino)benzonitrile]: 196 to 197 °C, 43.1% and 91.8%.
On the same counts, the results for `COc1cc2ncnc(Nc3ccc(C#N)cc3)c2cc1OCCCCCCn1ccnc1[N+](=O)[O-]` [Compound 6h, 4-((7-Methoxy-6-((6-(2-nitro-1H-imidazol-1-yl)hexyl)oxy)quinazolin-4-yl)amino)benzonitrile] are 191 to 192 °C, 47.3% and 94.7%.
The molecule `COc1cc2ncnc(Nc3ccc(OCc4ccccn4)c(Cl)c3)c2cc1OCCCn1ccnc1[N+](=O)[O-]` [Compound 6i, N-(3-Chloro-4-(pyridin-2-ylmethoxy)phenyl)-7-methoxy-6-(3-(2-nitro-1H-imidazol-1-yl)propoxy)quinazolin-4-amine] returned a melting point of 184 to 185 °C. Besides, the inhibition at 10 µM in data set [1] worked out at 87.2%. In addition, the inhibition at 10 µM in data set [2] stood at 97.7%.
The IC50 is the point on the concentration scale where inhibition reaches its midpoint. Low values mean higher potency, high ones lower potency. Consider `COc1cc2ncnc(Nc3ccc(OCc4ccccn4)c(Cl)c3)c2cc1OCCCCn1ccnc1[N+](=O)[O-]` [Compound 6j, N-(3-Chloro-4-(pyridin-2-ylmethoxy)phenyl)-7-methoxy-6-(4-(2-nitro-1H-imidazol-1-yl)butoxy)quinazolin-4-amine], for which the inhibition at 10 µM is 96.7% in data set [1]; -33.3% in data set [3]; 10.3% in data set [4]; 19.3% in data set [5]; -0.83% in data set [6]; 13.9% in data set [7]. Also, in data set [2], the inhibition at 10 µM stood at 99%. Also, the “% Kinase Inhibition at 10 µM P38a/MAPK14” value in data set [3] is given as “almost no inhibitory activity; also recorded: poor to weak inhibitory activity”. In data set [4], the “% Kinase Inhibition at 10 µM KDR/VEGFR2” value is “almost no inhibitory activity; also recorded: poor to weak inhibitory activity”. In data set [5], the “% Kinase Inhibition at 10 µM c-MET” value is given as “almost no inhibitory activity; also recorded: poor to weak inhibitory activity”. Besides, the “% Kinase Inhibition at 10 µM CDK2/cyclin A” value in data set [6] is “almost no inhibitory activity; also recorded: poor to weak inhibitory activity”. The “% Kinase Inhibition at 10 µM FGFR1” value in data set [7] is “almost no inhibitory activity; also recorded: poor to weak inhibitory activity”. In data set [2] (10-dose assay, 3-fold serial dilution starting at 10 µM), the midpoint of inhibition, the IC50, lay at 1.8 nM. Moreover, in data set [2] (ratio of EGFR IC50 values), the “fold more potent than lapatinib over EGFR” value is 6 fold. Moreover, in data set [2] (ratio of EGFR IC50 values), the “fold more potent than staurosporine over EGFR” value was determined as 50 fold.
For `COc1cc2ncnc(Nc3ccc(OCc4ccccn4)c(Cl)c3)c2cc1OCCCCCn1ccnc1[N+](=O)[O-]` [Compound 6k, N-(3-Chloro-4-(pyridin-2-ylmethoxy)phenyl)-7-methoxy-6-((5-(2-nitro-1H-imidazol-1-yl)pentyl)oxy)quinazolin-4-amine], the melting point fell in the range of 158 to 159 °C. Further, the inhibition at 10 µM in data set [1] turned out to be 91.2%. Also, the inhibition at 10 µM in data set [2] amounted to 98.6%.
On the same counts, the results for `COc1cc2ncnc(Nc3ccc(OCc4ccccn4)c(Cl)c3)c2cc1OCCCCCCn1ccnc1[N+](=O)[O-]` [Compound 6l, N-(3-Chloro-4-(pyridin-2-ylmethoxy)phenyl)-7-methoxy-6-((6-(2-nitro-1H-imidazol-1-yl)hexyl)oxy)quinazolin-4-amine] are 191 to 192 °C, 89% and 98.6%.
